EP1561465A2, “Methods of use of fluoroquinolone compounds against bacteria” (LG Life Sciences, Ltd., priority 1999, dated 2001)
In brackets after ≈: the same amount, converted by molar mass. Several values for one entry are separate records, joined by “and”; a condition that tells them apart may be missing. Equal values may be shown once. Read-outs that look alike come from different tables or passages of the source.

Legend:
Proteus vulgaris = assay: MIC by NCCLS broth microdilution, 1100 Japanese clinical isolates 1997-1998; format: cell-based; details: Proteus vulgaris (n=25)
Salmonella spp. [1] = assay: as above; format: cell-based; details: Salmonella spp. (n=29)
Staphylococcus aureus [2] = assay: as above; format: cell-based; details: for MIC: Staphylococcus aureus quinolone resistant
[3] = system: Gram negative anaerobic pathogens and facultative anaerobic pathogens; assay: MIC by agar dilution, Brucella HK agar with 5% laked sheep blood, anaerobic reference strains; format: cell-based
Klebsiella pneumoniae [4] = assay: MIC by NCCLS broth microdilution, 1100 Japanese clinical isolates 1997-1998; format: cell-based; details: Klebsiella pneumoniae (n=35)
P. aeruginosa = assay: MIC by two-fold serial agar dilution, quinolone-resistant strains; format: cell-based; details: Pseudomonas aeruginosa
Enterobacter cloacae = assay: MIC by NCCLS broth microdilution, 1100 Japanese clinical isolates 1997-1998; format: cell-based; details: Enterobacter cloacae (n=40)
Proteus mirabilis = assay: as above; format: cell-based; details: Proteus mirabilis (n=30)
Staphylococcus aureus [5] = assay: MIC by agar macrodilution (NCCLS), 373 Gram positive isolates, Athens 1998; format: cell-based; details: Methicillin-susceptible Staphylococcus aureus (n = 85)
[6] = system: Mycobacterium tuberculosis (MTB); assay: MIC by proportions method (NCCLS M24-T, 1995), 82 MTB strains; format: cell-based; details: Mycobacterium tuberculosis; 82 MTB strains
Klebsiella pneumoniae [7] = assay: MIC by agar dilution (NCCLS), 322 nosocomial Gram negative isolates, Athens 1998; format: cell-based; details: n = 56 isolates
Staphylococcus aureus [8] = assay: MIC by agar dilution (NCCLS), 411 isolates Buenos Aires 1998-99; format: cell-based; details: for MIC90: Staphylococcus aureus
Campylobacter jejuni = assay: MIC by agar dilution (NCCLS M7-A4), 288 enteropathogenic isolates, gemifloxacin and 15 other antimicrobials; details: Campylobacter jejuni
Escherichia coli = assay: MIC by agar dilution (NCCLS), 322 nosocomial Gram negative isolates, Athens 1998; format: cell-based; details: Escherichia coli; n = 57 isolates
Shigella spp. = assay: MIC by agar dilution (NCCLS M7-A4), 288 enteropathogenic isolates, gemifloxacin and 15 other antimicrobials; format: cell-based; details: Shigella spp. N= 21
In short: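 Agar dilution with ~10^4 cfu/spot inoculum; plates incubated aerobically at 35 °C for 24 h, except C. jejuni, held microaerophilically for 48 h. MIC taken as lowest antibiotic concentration with no visible growth.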

Hafnia alvei [9] = assay: as above; format: cell-based; details: Hafnia alvei N= 32
Pseudomonas aeruginosa = assay: MIC by agar dilution (NCCLS), 322 nosocomial Gram negative isolates, Athens 1998; format: cell-based; details: n = 57 isolates
Salmonella spp. [10] = assay: MIC by agar dilution (NCCLS M7-A4), 288 enteropathogenic isolates, gemifloxacin and 15 other antimicrobials; format: cell-based
Hafnia alvei [11] = assay: MIC by agar dilution (NCCLS M7-A4), 288 enteropathogenic isolates, eight quinolones; format: cell-based; details: Hafnia alvei (n = 32)
Enterococcus faecalis = assay: MIC by agar dilution (NCCLS), 411 isolates Buenos Aires 1998-99; format: cell-based; details: Enterococcus faecalis (n = 48)
[12] = Staphylococcus aureus oxacillin susceptible (n=41)
[13] = Staphylococcus aureus, Staphylococcus aureus oxacillin resistant (n=57)
[14] = S. aureus, Methicillin resistant (n = 14)
[15] = 24 h, read-out: MIC (mg/L) Range

C[C@@H]1CN(c2c(F)c(N)c3c(=O)c(C(=O)O)cn(C4CC4)c3c2F)C[C@H](C)N1 [Sparfloxacin, sparfloxacin]
MIC Range (Proteus vulgaris): 0.063 to 2 µg/mL | MIC50 (Proteus vulgaris; read-out: MIC50): 0.25 µg/mL (≈ 0.637 µM) | MIC90 (Proteus vulgaris; read-out: MIC90): 1 µg/mL (≈ 2.55 µM) | MIC50 (Salmonella spp. [1]): 0.032 µg/mL (≈ 0.0815 µM) | MIC90 (Salmonella spp. [1]): 0.063 µg/mL (≈ 0.161 µM) | MIC Range (Salmonella spp. [1]): 0.016 to 0.063 µg/mL | MIC Range (Staphylococcus aureus [2]; Staphylococcus aureus oxacillin resistant (n=57)): 0.032 to 128 µg/mL | MIC90 (Staphylococcus aureus [2]; [12]): 0.125 µg/mL (≈ 0.319 µM) | MIC Range (Staphylococcus aureus [2]; [12]): 0.032 to 1 µg/mL | MIC50 (Staphylococcus aureus [2]; [13]): 4 µg/mL (≈ 10.2 µM) | MIC90 (Staphylococcus aureus [2]; [13]): 32 µg/mL (≈ 81.5 µM) | MIC50 (Staphylococcus aureus [2]; Staphylococcus aureus, Staphylococcus aureus oxacillin susceptible (n=41)): 0.063 µg/mL (≈ 0.161 µM) | MIC (Staphylococcus aureus [2]; Staphylococcus aureus, strain TMS1* (spontaneous mutant resistant to ciprofloxacin)): 0.125 µg/mL (≈ 0.319 µM) | MIC (Staphylococcus aureus [2]; Staphylococcus aureus, strain TMS3, read-out: MIC): 128 µg/mL (≈ 326 µM) | MIC (Staphylococcus aureus [2]; Staphylococcus aureus, strain TMS4, read-out: MIC): 8 µg/mL (≈ 20.4 µM) | MIC (Staphylococcus aureus [2]; Staphylococcus aureus, strain TMS5, read-out: MIC): 8 µg/mL (≈ 20.4 µM) | MIC (Staphylococcus aureus [2]; Staphylococcus aureus, strain TMS6, read-out: MIC): 2 µg/mL (≈ 5.1 µM) | MIC [3]: 2 µg/mL and 0.125 µg/mL | MIC ([3]; Bacteroides eggerthii, ATCC27754, Bacteroides eggerthii ATCC27754, read-out: MIC): 4 µg/mL (≈ 10.2 µM) | MIC ([3]; Bacteroides fragilis, ATCC25285, Bacteroides fragilis ATCC25285, read-out: MIC): 1 µg/mL (≈ 2.55 µM) | MIC ([3]; Bacteroides fragilis, Bacteroides fragilis GA15562, read-out: MIC): 1 µg/mL (≈ 2.55 µM) | MIC ([3]; Bacteroides fragilis, Bacteroides fragilis GA-I0558, read-out: MIC): 1 µg/mL (≈ 2.55 µM) | MIC ([3]; Bacteroides fragilis, Bacteroides fragilis GA-I7955, read-out: MIC): 1 µg/mL (≈ 2.55 µM) | MIC ([3]; Bacteroides fragilis, Bacteroides fragilis GAI10150, read-out: MIC): 1 µg/mL (≈ 2.55 µM) | MIC ([3]; Bacteroides fragilis, Bacteroides fragilis GAI30079, read-out: MIC): 2 µg/mL (≈ 5.1 µM) | MIC ([3]; Bacteroides fragilis, Bacteroides fragilis GAI30144, read-out: MIC): 1 µg/mL (≈ 2.55 µM) | MIC ([3]; Bacteroides fragilis, NCTC10581, Bacteroides fragilis NCTC10581, read-out: MIC): 1 µg/mL (≈ 2.55 µM) | MIC ([3]; Bacteroides ovatus, ATCC8483, Bacteroides ovatus ATCC8483, read-out: MIC): 2 µg/mL (≈ 5.1 µM) | MIC ([3]; Bacteroides thetaiotaomicron, ATCC29741, Bacteroides thetaiotaomicron ATCC29741, read-out: MIC): 2 µg/mL (≈ 5.1 µM) | MIC ([3]; Bacteroides uniformis, ATCC8492, Bacteroides uniformis ATCC8492, read-out: MIC): 1 µg/mL (≈ 2.55 µM) | MIC ([3]; Bilophilla wadsworthia WAL7959, read-out: MIC): 0.5 µg/mL (≈ 1.27 µM) | MIC ([3]; Campylobacter gracilis, JCM8538, Campylobacter gracilis JCM8538, read-out: MIC): ≤ 0.03 µg/mL | MIC ([3]; Campylobacter ureolyticus, NCTC10941, Bacteroides ureolyticus NCTC10941, read-out: MIC): 0.06 µg/mL (≈ 0.153 µM) | MIC ([3]; Capnocytophaga ochracea, Capnocytophaga ochracea GAI5586, read-out: MIC): ≤ 0.03 µg/mL | MIC ([3]; Desullomonas pigra DSM749, read-out: MIC): 0.06 µg/mL (≈ 0.153 µM) | MIC ([3]; Fusobacterium necrophorum, ATCC25286, Fusobacterium necrophorum ATCC25286, read-out: MIC): 1 µg/mL (≈ 2.55 µM) | MIC ([3]; Fusobacterium nucleatum, ATCC25586, Fusobacterium nucleatum ATCC25586, read-out: MIC): 1 µg/mL (≈ 2.55 µM) | MIC ([3]; Fusobacterium varium, ATCC8501, Fusobacterium varium ATCC8501, read-out: MIC): 8 µg/mL (≈ 20.4 µM) | MIC ([3]; Hoylesella oralis, ATCC33269, Prevotella oralis ATCC33269, read-out: MIC): 4 µg/mL (≈ 10.2 µM) | MIC ([3]; Parabacteroides distasonis, ATCC8503, Bacteroides distasonis ATCC8503, read-out: MIC): 2 µg/mL (≈ 5.1 µM) | MIC ([3]; Phocaeicola vulgatus, ATCC8482, Bacteroides vulgatus ATCC8482, read-out: MIC): 2 µg/mL (≈ 5.1 µM) | MIC ([3]; Porphyromonas asaccharolytica, ATCC25260, Porphyromonas asaccharolytica ATCC25260, read-out: MIC): 0.25 µg/mL (≈ 0.637 µM) | MIC ([3]; Prevotella bivia, ATCC29303, Prevotella bivia ATCC29303, read-out: MIC): 8 µg/mL (≈ 20.4 µM) | MIC ([3]; Prevotella buccaeATCC33574, read-out: MIC): 2 µg/mL (≈ 5.1 µM) | MIC ([3]; Prevotella corporis, Prevotella corporis GAI91000, read-out: MIC): 2 µg/mL (≈ 5.1 µM) | MIC ([3]; Prevotella heparinolytica, ATCC35895, Prevotella heparinolytica ATCC35895, read-out: MIC): 0.5 µg/mL (≈ 1.27 µM) | MIC ([3]; Prevotella melaninogenica, Prevotella melaninogenica GAI5490, read-out: MIC): 2 µg/mL (≈ 5.1 µM) | MIC ([3]; Segatella oris, ATCC33573, Prevotella oris ATCC33573, read-out: MIC): 2 µg/mL (≈ 5.1 µM) | MIC ([3]; Sutterella wadsworthensis, ATCC51579, Sutterella wadsworthensis ATCC51579, read-out: MIC): 0.25 µg/mL (≈ 0.637 µM) | MIC ([3]; Veillonella dispar, ATCC17748): 0.125 µg/mL (≈ 0.319 µM) | MIC ([3]; Veillonella parvula, ATCC10790, Veillonella parvula ATCC10790, read-out: MIC): 0.25 µg/mL (≈ 0.637 µM) | MIC50 (Klebsiella pneumoniae [4]): 0.032 µg/mL (≈ 0.0815 µM) | MIC Range (Klebsiella pneumoniae [4]): 0.016 to 2 µg/mL | MIC90 (Klebsiella pneumoniae [4]; read-out: MIC90): 0.063 µg/mL (≈ 0.161 µM) | MIC (P. aeruginosa): 2 µg/mL (≈ 5.1 µM) | MIC50 (Enterobacter cloacae): 0.032 µg/mL (≈ 0.0815 µM) | MIC90 (Enterobacter cloacae): 1 µg/mL (≈ 2.55 µM) | MIC Range (Enterobacter cloacae): ≤0.008 to 2 µg/mL | MIC Range (Proteus mirabilis): 0.063 to 16 µg/mL | MIC50 (Proteus mirabilis; read-out: MIC50): 0.25 µg/mL (≈ 0.637 µM) | MIC90 (Proteus mirabilis; read-out: MIC90): 0.5 µg/mL (≈ 1.27 µM)

CC1COc2c(N3CCN(C)CC3)c(F)cc3c(=O)c(C(=O)O)cn1c23 (stereo not shown) [Ofloxacin, ofloxacin]
MIC Range (Staphylococcus aureus [5]): 0.25 to 32 µg/mL | MIC90 (Staphylococcus aureus [5]; read-out: MIC90): 1 µg/mL (≈ 2.77 µM) | MIC90 [6]: 2 µg/mL (≈ 5.53 µM) | MIC50 (Klebsiella pneumoniae [7]; Klebsiella pneumoniae): 0.125 µg/mL (≈ 0.346 µM) | MIC90 (Klebsiella pneumoniae [7]; Klebsiella pneumoniae): 1 µg/mL (≈ 2.77 µM) | MIC Range (Klebsiella pneumoniae [7]): 0.06 to 32 µg/mL | Resistance (%) (Staphylococcus aureus [8]; [14]): 100% | Resistance (%) (Staphylococcus aureus [8]; S. aureus, Methicillin susceptible (n = 66)): 0% | MIC90 (Staphylococcus aureus [8]; [14]): 16 µg/mL (≈ 44.3 µM) | MIC90 (Staphylococcus aureus [8]; Staphylococcus aureus (n = 80)): 8 µg/mL (≈ 22.1 µM) | MIC (Campylobacter jejuni; read-out: MIC (mg/L) 50%): 16 mg/L (≈ 44.3 µM) | MIC (Campylobacter jejuni; read-out: MIC (mg/L) 90%): 32 mg/L (≈ 88.6 µM) | MIC50 (Escherichia coli): 0.06 µg/mL (≈ 0.166 µM) | MIC90 (Escherichia coli): 0.25 µg/mL (≈ 0.692 µM) | MIC (Shigella spp.; [15]): 0.015 to 0.06 mg/L (≈ 0.0415 to 0.166 µM) | MIC (Shigella spp.; read-out: MIC (mg/L) 50%): 0.03 mg/L (≈ 0.083 µM) | MIC (Shigella spp.; read-out: MIC (mg/L) 90%): 0.06 mg/L (≈ 0.166 µM) | MIC (Hafnia alvei [9]; [15]): 0.03 mg/L (≈ 0.083 µM) | MIC (Hafnia alvei [9]; read-out: MIC (mg/L) 50%): 0.03 mg/L (≈ 0.083 µM) | MIC (Hafnia alvei [9]; read-out: MIC (mg/L) 90%): 0.03 mg/L (≈ 0.083 µM) | MIC50 (Pseudomonas aeruginosa): 2 µg/mL (≈ 5.53 µM) | MIC90 (Pseudomonas aeruginosa): > 64 µg/mL | MIC (Salmonella spp. [10]; S. hadar(2), isolates with MICs for ciprofloxacin ≥[…], read-out: MIC): 2 mg/L (≈ 5.53 µM) | MIC (Salmonella spp. [10]; S. newport(1), isolate with MIC for ciprofloxacin ≥[…], read-out: MIC): 2 mg/L (≈ 5.53 µM) | MIC (mg/L) Range (Salmonella spp. [10]; Salmonella spp. N= 106): 0.06 to 2 mg/L | MIC (Salmonella spp. [10]; Salmonella, S. tshiongwe(1), isolate with MIC for ciprofloxacin ≥[…], read-out: MIC): 2 mg/L (≈ 5.53 µM) | MIC (Salmonella spp. [10]; Salmonella, read-out: MIC (mg/L) 50%, Salmonella spp. N= 106): 0.12 mg/L (≈ 0.332 µM) | MIC (Salmonella spp. [10]; Salmonella, read-out: MIC (mg/L) 90%, Salmonella spp. N= 106): 0.5 mg/L (≈ 1.38 µM) | % Susceptible (Hafnia alvei [11]): 100% | MIC50 (Hafnia alvei [11]): 0.03 µg/mL (≈ 0.083 µM) | MIC90 (Hafnia alvei [11]): 0.03 µg/mL (≈ 0.083 µM) | MIC Range (Hafnia alvei [11]): 0.03 µg/mL (≈ 0.083 µM) | MIC90 (Enterococcus faecalis): > 32 µg/mL
